Source: the supplement of paper PMC11061612

How the values were obtained:
Experiment in all cases: Bliss excess, mean over the matrix (fraction); higher = more synergy
WM278 (Melanoma) = system: WM278 (Melanoma)
Outline: (§1)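 Cell lines grown in DMEM/F12 or RPMI with 10% FBS were plated in 1536-well plates and held 24 hours at 37°C, 5% CO2 before 72 hours of exposure to two-drug dose matrices, with DMSO typically at 0.2%. CellTiter-Glo 2.0 luminescence gave viability, which was converted to inhibition. Vehicle wells were set to 0 and blank wells to 1. Combination Emax is the second-highest inhibition in the matrix, and Bliss excess is the observed combination effect minus the expected EA + EB − EA·EB, where EA and EB are the single-agent effects.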

[1] = system: 23132-87 (Gastric Carcinoma)
Outline: as §1

[2] = system: LXF-289 (Lung Adenocarcinoma)
Outline: as §1

[3] = system: REH (B-Lymphoblastic Leukemia)
Outline: as §1

[4] = system: CAL-120 (Breast Carcinoma)
Outline: as §1

[5] = system: HSC-39 (Gastric Carcinoma)
Outline: as §1

[6] = system: CAL-62 (Thyroid Gland Carcinoma)
Outline: as §1

[7] = system: SU-DHL-10 (B-Cell Non-Hodgkin's Lymphoma)
Outline: as §1

[8] = system: KE-37 (T-Lymphoblastic Leukemia)
Outline: as §1

[9] = system: LB996-RCC (Kidney Carcinoma)
Outline: as §1

[10] = system: VAL (B-Cell Non-Hodgkin's Lymphoma)
Outline: as §1

A2058 (Melanoma) = system: A2058 (Melanoma)
Outline: as §1

[11] = system: LK-2 (Squamous Cell Lung Carcinoma)
Outline: as §1

[12] = system: GP5d (Colorectal Carcinoma)
Outline: as §1

WM793B (Melanoma) = system: WM793B (Melanoma)
Outline: as §1

SF268 (Low Grade Glioma) = system: SF268 (Low Grade Glioma)
Outline: as §1

[13] = system: PSN1 (Pancreatic Carcinoma)
Outline: as §1

[14] = system: RERF-LC-Sq1 (Squamous Cell Lung Carcinoma)
Outline: as §1

[15] = system: L-1236 (Hodgkin's Lymphoma)
Outline: as §1

[16] = system: TE-8 (Esophageal Squamous Cell Carcinoma)
Outline: as §1

Row | SMILES | Bliss excess (WM278 (Melanoma)) | Bliss excess [1] | Bliss excess [2] | Bliss excess [3] | Bliss excess [4] | Bliss excess [5] | Bliss excess [6] | Bliss excess [7] | Bliss excess [8] | Bliss excess [9] | Bliss excess [10] | Bliss excess (A2058 (Melanoma)) | Bliss excess [11] | Bliss excess [12] | Bliss excess (WM793B (Melanoma)) | Bliss excess (SF268 (Low Grade Glioma)) | Bliss excess [13] | Bliss excess [14] | Bliss excess [15] | Bliss excess [16]
1 | CN(C)CCCOc1ccc(-c2ccc3ncc4c(c3c2)n(C2CCOCC2)c(=O)n4C)cn1 [AZD0156] + O=C(c1cc(Cc2n[nH]c(=O)c3ccccc23)ccc1F)N1CCN(C(=O)C2CC2)CC1 [Olaparib] (first compound max 3 µM, partner max 3 µM) | 0.0011 | 0.198 | 0.092 | 0.143 | 0.0047 | 0.128 | 0.0939 | 0.11 | 0.0951 | 0.0071 | 0.141 | 0.151 | 0.154 | 0.0682 | 0.0206 | -0.0347 | 0.0124 | 0.0396 | -0.0602 | 
2 | CS(=O)(=O)CCNCc1ccc(-c2ccc3ncnc(Nc4ccc(OCc5cccc(F)c5)c(Cl)c4)c3c2)o1 [Lapatinib] + NC1(c2ccc(-c3nc4ccn5c(=O)[nH]nc5c4cc3-c3ccccc3)cc2)CCC1 [MK-2206] (first compound max 10 µM, 7x7, partner max 10 µM) |  |  |  | 0.0194 |  | 0.104 | -0.0034 |  |  |  | -0.0147 | -0.049 | 0.0303 |  |  |  | 0.0205 |  | 0.0138 | -0.0004
3 | CN(CCO)CC[C@H](CSc1ccccc1)Nc1ccc(S(=O)(=O)NC(=O)c2ccc(N3CCC([C@@H](O)c4ccccc4-c4ccc(Cl)cc4)CC3)cc2)cc1S(=O)(=O)C(F)(F)F [AZD4320] + Cn1cnc2c(F)c(Nc3ccc(Br)cc3Cl)c(C(=O)NOCCO)cc21 [Selumetinib] (first compound max 1 µM, 7x7, partner max 3 µM) | 0.0582 | 0.0543 | -0.0301 | -0.0369 | 0.0577 | 0.0414 | -0.0051 | 0.0912 | 0.0464 | -0.0445 | 0.0113 |  | -0.0134 | 0.0908 | 0.0604 | 0.0069 | 0.0043 | 0.0158 | 0.0288 | -0.0628
4 | CC(=O)c1c(C)c2cnc(Nc3ccc(N4CCNCC4)cn3)nc2n(C2CCCC2)c1=O [Palbociclib] + CN(CC[C@H](CSC1=CC=CC=C1)NC2=C(C=C(C=C2)S(=O)(=O)NC(=O)C3=CC=C(C=C3)N4CCC(CC4)[C@H](C5=CC=CC=C5C6=CC=C(C=C6)Cl)O)S(=O)(=O)C(F)(F)F)CCO [AZD4320] (first compound max 10 µM, 7x7, partner max 1 µM) | -0.106 | -0.093 | -0.0091 |  | -0.0614 |  |  | 0.0319 | -0.0137 | -0.0652 |  | -0.0261 |  | 0.0238 | -0.0525 | -0.0438 |  | -0.0176 |  | 
5 | CCc1c2c(nc3ccc(O)cc13)-c1cc3c(c(=O)n1C2)COC(=O)[C@]3(O)CC [SN-38] + O=C(c1cc(Cc2n[nH]c(=O)c3ccccc23)ccc1F)N1CCN(C(=O)C2CC2)CC1 [Olaparib] (first compound max 0.3 µM, 7x7, partner max 10 µM) | 0.0486 | 0.0174 |  | 0.0473 | 0.0417 | -0.0724 | 0.0139 |  | 0.0357 | -0.0651 | 0.036 | 0.038 | 0.128 | 0.143 |  |  | 0.0329 | 0.0502 | 0.0111 | 0.0202
6 | C=CCn1c(=O)c2cnc(Nc3ccc(N4CCN(C)CC4)cc3)nc2n1-c1cccc(C(C)(C)O)n1 [AZD1775] + O=C(c1cc(Cc2n[nH]c(=O)c3ccccc23)ccc1F)N1CCN(C(=O)C2CC2)CC1 [Olaparib] (first compound max 1 µM, partner max 10 µM) | -0.0312 | -0.0282 | -0.0247 | -0.0474 | 0.0027 | 0.0277 | 0.0017 | -0.0229 | 0.0513 |  | -0.0411 | -0.0049 | -0.0148 | 0.0252 | -0.0236 | -0.0312 | -0.0585 | -0.0211 | -0.0441 | -0.03
7 | C[C@@H](c1ccc2nccn2c1)n1nnc2ncc(-c3cnn(C)c3)nc21 [Savolitinib] + CN(CC[C@H](CSC1=CC=CC=C1)NC2=C(C=C(C=C2)S(=O)(=O)NC(=O)C3=CC=C(C=C3)N4CCC(CC4)[C@H](C5=CC=CC=C5C6=CC=C(C=C6)Cl)O)S(=O)(=O)C(F)(F)F)CCO [AZD4320] (first compound max 1 µM, 7x7, partner max 1 µM) | -0.0406 | -0.0618 | -0.0203 |  | -0.0325 |  |  | -0.0067 | -0.0327 | -0.0392 |  | 0.0035 |  | -0.0339 | -0.0644 | -0.0491 |  | -0.0075 |  | 
